Results as given in patent US20230074252A1, “DOSAGES AND METHODS FOR TREATING PULMONARY ARTERIAL HYPERTENSION WITH RODATRISTAT” (Altavant Sciences GmbH, priority 2020, published 2023).

What was measured:
Test in all cases: FDA guidance DDI risk assessment, perpetrator potential
Design in all cases: from tissue; host or cells: pooled human liver microsomes (n=200 donors)
[1] = molecular target: T1, CYP1A2 (Homo sapiens, UniProt P05177); conditions: predicted @ 600 mg BID
T1 sequence (P05177 1-516): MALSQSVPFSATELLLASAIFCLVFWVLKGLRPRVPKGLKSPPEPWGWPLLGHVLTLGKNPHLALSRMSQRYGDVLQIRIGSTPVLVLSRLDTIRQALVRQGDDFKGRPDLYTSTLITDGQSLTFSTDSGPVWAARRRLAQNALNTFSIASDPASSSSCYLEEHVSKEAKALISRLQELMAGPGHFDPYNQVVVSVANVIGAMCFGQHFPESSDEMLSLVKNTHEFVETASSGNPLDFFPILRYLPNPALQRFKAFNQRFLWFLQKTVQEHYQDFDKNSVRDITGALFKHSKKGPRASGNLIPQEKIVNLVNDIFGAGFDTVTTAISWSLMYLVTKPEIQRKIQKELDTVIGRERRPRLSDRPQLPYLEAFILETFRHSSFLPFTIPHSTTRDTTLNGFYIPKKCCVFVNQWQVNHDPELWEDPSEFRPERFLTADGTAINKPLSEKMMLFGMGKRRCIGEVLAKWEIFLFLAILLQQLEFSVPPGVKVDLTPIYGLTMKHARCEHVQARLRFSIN
Description: (§1) The potential for rodatristat ethyl or rodatristat to be perpetrators of drug-drug interactions was assessed across in vitro CYP and transporter studies (Tables 1-4). […] This analysis was performed to assess the potential for clinically meaningful DDIs as recommended in FDA Draft Guidance: “In Vitro Metabolism- and Transporter-Mediated Drug-Drug Interaction Studies Guidance for Industry”; October 2017 (FDA, 2017).
(§2) R1 and R3 values using free (non-protein bound) drug levels were calculated based on plasma protein binding (fraction bound, fb) of rodatristat ethyl (0.995) and rodatristat (0.991). The FDA Guidance is set forth In Vitro Metabolism- and Transporter-Mediated Drug-Drug Interaction Studies Guidance for Industry (2017). […] Parameters for the prediction are set forth below in Tables 5 and 6.

[2] = molecular target: CYP2C9 (Homo sapiens, UniProt P11712); conditions: predicted @ 600 mg BID
Description: as §1, §2

[3] = molecular target: CYP2C19 (Homo sapiens, UniProt P33261); conditions: predicted @ 600 mg BID
Description: as §1, §2

[4] = molecular target: T2, CYP2B6 (Homo sapiens, UniProt P20813); conditions: predicted @ 600 mg BID
T2 sequence (P20813 1-491): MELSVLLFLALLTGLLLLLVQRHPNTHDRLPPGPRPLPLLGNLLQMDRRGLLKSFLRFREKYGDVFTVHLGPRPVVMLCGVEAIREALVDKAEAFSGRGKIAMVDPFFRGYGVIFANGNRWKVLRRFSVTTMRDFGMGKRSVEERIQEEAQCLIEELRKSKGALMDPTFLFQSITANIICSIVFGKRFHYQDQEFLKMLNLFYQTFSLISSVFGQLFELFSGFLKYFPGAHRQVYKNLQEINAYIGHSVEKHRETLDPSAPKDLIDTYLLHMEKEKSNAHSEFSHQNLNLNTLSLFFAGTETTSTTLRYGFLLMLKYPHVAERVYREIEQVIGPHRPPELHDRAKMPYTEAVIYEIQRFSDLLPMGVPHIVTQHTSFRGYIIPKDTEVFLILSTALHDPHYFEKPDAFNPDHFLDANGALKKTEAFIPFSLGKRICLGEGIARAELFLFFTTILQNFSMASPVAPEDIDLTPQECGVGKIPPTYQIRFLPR
Description: as §1, §2

[5] = molecular target: CYP2D6 (Homo sapiens, UniProt P10635); conditions: predicted @ 600 mg BID
Description: as §1, §2

[6] = molecular target: T3, CYP2C8 (Homo sapiens, UniProt P10632); conditions: for Potential for interaction (perpetrator), CYP2C8: predicted @ 600 mg BID
T3 sequence (P10632 1-490): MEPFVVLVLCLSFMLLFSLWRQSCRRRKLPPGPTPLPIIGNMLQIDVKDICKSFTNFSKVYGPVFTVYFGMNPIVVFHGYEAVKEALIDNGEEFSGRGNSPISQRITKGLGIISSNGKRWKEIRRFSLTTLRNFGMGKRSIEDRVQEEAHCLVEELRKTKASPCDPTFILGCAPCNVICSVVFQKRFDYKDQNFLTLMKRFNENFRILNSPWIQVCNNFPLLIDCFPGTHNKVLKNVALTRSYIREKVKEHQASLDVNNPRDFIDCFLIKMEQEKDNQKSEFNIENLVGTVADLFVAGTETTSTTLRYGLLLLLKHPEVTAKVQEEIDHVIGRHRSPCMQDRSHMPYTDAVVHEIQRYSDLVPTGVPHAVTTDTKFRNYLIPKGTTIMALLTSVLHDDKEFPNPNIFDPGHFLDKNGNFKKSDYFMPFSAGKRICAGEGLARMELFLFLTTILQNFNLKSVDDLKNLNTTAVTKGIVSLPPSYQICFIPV
Description: as §1, §2

Chain of CYP2C9 (P11712 whole entry): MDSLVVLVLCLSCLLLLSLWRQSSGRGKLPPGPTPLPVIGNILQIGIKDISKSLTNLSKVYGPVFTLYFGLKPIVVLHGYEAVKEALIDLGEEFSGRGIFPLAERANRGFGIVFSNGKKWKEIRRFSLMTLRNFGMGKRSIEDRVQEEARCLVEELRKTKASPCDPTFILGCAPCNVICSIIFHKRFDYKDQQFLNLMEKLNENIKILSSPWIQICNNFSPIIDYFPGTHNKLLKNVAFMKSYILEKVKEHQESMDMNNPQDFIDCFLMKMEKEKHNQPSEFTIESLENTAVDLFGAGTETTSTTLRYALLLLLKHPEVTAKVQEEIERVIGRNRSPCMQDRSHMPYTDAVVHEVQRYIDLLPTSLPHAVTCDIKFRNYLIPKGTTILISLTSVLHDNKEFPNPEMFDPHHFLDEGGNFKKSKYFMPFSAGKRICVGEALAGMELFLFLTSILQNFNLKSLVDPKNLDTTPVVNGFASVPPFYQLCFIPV
Chain of CYP2D6 (P10635 whole entry): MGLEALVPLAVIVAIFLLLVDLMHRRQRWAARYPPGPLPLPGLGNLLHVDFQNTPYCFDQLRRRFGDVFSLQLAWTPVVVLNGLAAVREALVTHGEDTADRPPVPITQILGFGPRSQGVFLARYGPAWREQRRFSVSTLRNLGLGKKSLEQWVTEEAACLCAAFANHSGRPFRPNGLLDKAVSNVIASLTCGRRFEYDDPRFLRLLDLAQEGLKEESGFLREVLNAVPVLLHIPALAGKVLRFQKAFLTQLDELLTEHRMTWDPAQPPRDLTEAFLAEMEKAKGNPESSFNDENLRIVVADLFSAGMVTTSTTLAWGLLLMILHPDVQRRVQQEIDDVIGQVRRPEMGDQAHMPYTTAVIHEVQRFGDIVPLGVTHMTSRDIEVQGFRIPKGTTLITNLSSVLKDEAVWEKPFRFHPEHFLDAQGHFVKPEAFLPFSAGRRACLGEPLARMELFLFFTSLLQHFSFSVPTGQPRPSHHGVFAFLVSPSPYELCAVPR
Chain of CYP2C19 (P33261 whole entry): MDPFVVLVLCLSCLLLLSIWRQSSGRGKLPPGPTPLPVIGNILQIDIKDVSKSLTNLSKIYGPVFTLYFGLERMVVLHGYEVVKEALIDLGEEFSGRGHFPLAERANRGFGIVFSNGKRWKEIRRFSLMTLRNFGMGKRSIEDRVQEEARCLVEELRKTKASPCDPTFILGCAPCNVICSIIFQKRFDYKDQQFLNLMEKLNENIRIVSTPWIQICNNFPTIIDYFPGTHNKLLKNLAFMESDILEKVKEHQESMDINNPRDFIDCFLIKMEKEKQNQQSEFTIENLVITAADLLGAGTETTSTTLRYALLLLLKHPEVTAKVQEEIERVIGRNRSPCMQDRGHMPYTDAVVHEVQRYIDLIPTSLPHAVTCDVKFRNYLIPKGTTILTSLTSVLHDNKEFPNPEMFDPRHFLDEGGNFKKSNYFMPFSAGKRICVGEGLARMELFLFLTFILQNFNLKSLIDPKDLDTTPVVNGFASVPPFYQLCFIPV

Row | Potential for interaction (perpetrator), CYP1A2 [1] | Potential for interaction (perpetrator), CYP2C9 [2] | Potential for interaction (perpetrator), CYP2C19 [3] | Potential for interaction (perpetrator), CYP2B6 [4] | Potential for interaction (perpetrator), CYP2D6 [5] | Potential for interaction (perpetrator), CYP2C8 [6] | Ratio of unbound Cmax to Ki, CYP2C8 ([6]; 600 mg BID) | SMILES
1 | No | No | No | Yes | No | No |  | CCOC(=O)[C@@H]1CC2(CCN(c3cc(O[C@H](c4ccc(Cl)cc4-c4ccccc4)C(F)(F)F)nc(N)n3)CC2)CN1 [Rodatristat ethyl, (S)-ethyl 8-(2-amino-6-((R)-1-(5-chloro-[1,1′-biphenyl]-2-yl)-2,2,2-trifluoroethoxy)pyrimidin-4-yl)-2,8-diazaspiro[4.5]decane-3-carboxylate]
2 | No | No | No | Yes | No | No | 0.014 | Nc1nc(O[C@H](c2ccc(Cl)cc2-c2ccccc2)C(F)(F)F)cc(N2CCC3(CC2)CN[C@H](C(=O)O)C3)n1 [Rodatristat, (S)-8-(2-amino-6-((R)-1-(5-chloro-[1,1′-biphenyl]-2-yl)-2,2,2-trifluoroeth-oxy)pyrimidin-4-yl)-2,8-diazaspiro[4.5]decane-3-carboxylic acid]
